According to patent US8362021B2, “Method for increasing the bioavailability of benzhydryl piperazine containing compounds” (Zalicus Pharmaceuticals Ltd., priority 2006, dated 2013):
Like-named read-outs stand apart in the source and are kept apart here.

Assay: Single dose, open-label food effect pharmacokinetic trial of oral capsules in healthy subjects
Assay type: in vivo, human
Details: for bioavailability / Tmax: human, plasma, po; for bioavailability: healthy subjects; for Tmax: oral administration
Experimental: A single centre, single dose, open-label trial in healthy subjects was conducted. Study drug treatments were as follows: • Treatment A: Compound No. 1, in capsule form (25-400 mg) administered without food; • Treatment B: Compound No. 1, in capsule form (400-800 mg) administered with a normal fat meal; • Treatment C: Compound No. 1, in capsule form (400-1600 mg) administered with a high-fat meal.
In treatment A, subjects fasted overnight with water permitted up to one hour before dosing. One or more 25 mg or 100 mg capsules of Compound No. 1 were administered with 240 mL room temperature water. Subjects continued to fast for approximately 4 hours until lunch. All meals and snacks provided during the study were low fat and standardized. Additional water was allowed ad lib but there was no caffeine, smoking or alcohol and no vigorous exercise.
In treatments B and C, subjects consumed breakfast the day of the study. Breakfast commenced approximately 30 minutes prior to dosing with dosing occurring within 10 minutes after finishing the meal. One or more 25 mg or 100 mg capsules containing Compound No. 1 were administered to the subjects with 240 mL room temperature water. After dosing, subjects consumed no food until lunch and otherwise followed the same protocol as in treatment A.
In treatment B, a normal fat meal consisted of: toast with 1 pat of butter; a banana; 2% milk; apple juice; and Honey Nut Cheerios®. In treatment C, a high fat meal consisted of: 2 slices of buttered toast, 2 eggs fried in butter, 2 slices of bacon, 4 oz hash brown potatoes and 8 oz of whole milk.
Subjects received one or two doses. There was a washout period of at least 14 days between study drug administrations in those subjects dosed more than once. […] The actual dosing and sample times were recorded on a Case Report Form. At least 15 blood samples were collected during the period from pre-dose through 48 hours post-dose; in most subjects, additional samples were obtained at 60, 72, 120, 168 and 336 hours post-dose. Concentrations of Compound No. 1 were determined in plasma by BASi Northwest Laboratories Inc. (McMinnville, Oreg.) by LC-MS/MS. The lower limit of quantitation for Compound No. 1 was 0.05 ng/mL. Sample values below the lower limit of quantitation were reported as “<0.05 ng/mL”.
Pharmacokinetic parameters were obtained using compartmental methods. Relative exposure was quantified through the term relative bioavailability. In that none of the subjects received an intravenous dose of Compound No. 1, absolute bioavailability could not be determined. […] There were no protocol deviations that confounded the pharmacokinetic analyses.
Statistical analyses were performed using NONMEM version 5. Study results were not corrected for drug potency.

bioavailability, normal fat meal vs high fat meal (individual plasma concentrations, FIGS. 3 and 4) (400 mg and 800 mg dosage): increased bioavailability
decrease of bioavailability (fasting compared to a normal fat meal): 32%
increase of bioavailability of capsules (high fat meal compared to a normal fat meal): 460%
bioavailability (typical value, read-out: Relative bioavailability, 25-mg capsules (relative to 100-mg capsules)): 148%
Tmax (subjects fasted): < 2 h
Tmax (subjects fed a high fat meal): 4 to 5 h
Tmax (subjects fed a normal fat meal): 2 to 5 h
bioavailability (oral capsules, typical value of compartmental NONMEM analysis, read-out: Relative bioavailability, Fasted (relative to normal-fat meal)): 68.2%
SMILES: O=C(CC(c1ccccc1)c1ccccc1)N1CCN(C(c2ccccc2)c2ccccc2)CC1 [Compound No. 1, 1-(3,3-diphenylpropionyl)-4-benzhydryl piperazine]
